The record followed here is ChEMBL document CHEMBL4602664, “Chrysosporazines F-M: P-Glycoprotein Inhibitory Phenylpropanoid Piperazines from an Australian Marine Fish Derived Fungus, Chrysosporium sp. CMB-F294” (J Nat Prod, 2020).

For orientation: pIC50 means the IC50 on a negative log10 scale, so that one unit is a factor of ten.

pIC50: −log10 of the molar value.

In one assay the test system is SW-620. The assay is described as follows: Antiproliferative activity against human SW620 cells assessed as reduction in cell viability after 48 hrs by MTT assay. The format is functional, cell-based. The following applies: SW-620, 48 h. On the technique in general: Formazan colour is commonly taken as a measure of viable cells.
The subject of a further assay is Escherichia coli. The assay is described as follows: Antibacterial activity against Escherichia coli ATCC 11775 assessed as reduction in microbial growth after 24 hrs by spectrophotometric method. The format is functional, organism-based. The following applies: ATCC 11775, 24 h.
A further assay relates to Candida albicans. The assay is described as follows: Antifungal activity against Candida albicans ATCC 10231 assessed as reduction in microbial growth after 48 hrs by spectrophotometric method. It is filed as functional, organism-based. The following applies: ATCC 10231, 48 h.
In the next assay the test system is Staphylococcus aureus. In words: Antibacterial activity against Staphylococcus aureus ATCC 25923 assessed as reduction in microbial growth after 24 hrs by spectrophotometric method. It is filed as functional, organism-based. Particulars: ATCC 25923, 24 h.
Another assay deals with SW620/AD300. The assay is described as follows: Antiproliferative activity against human SW620/AD300 cells assessed as reduction in cell viability after 48 hrs by MTT assay. The format is functional, cell-based. Particulars: SW620/AD300, 48 h.

Turning to `COc1cc(C[C@H]2CN3C[C@]4(O)[C@@H](c5ccccc5)c5c(cc6c(c5OC)OCO6)[C@@H]4[C@H]3CN2C(C)=O)cc2c1OCO2`, the pIC50 in the assay on SW-620, in the assay on Escherichia coli, with Candida albicans and in the assay on Staphylococcus aureus was less than 4.52 in each case.
`COc1cc([C@H]2/C(=C\c3ccccc3)C(=O)N3C[C@H](Cc4ccccc4)N(C(C)=O)C[C@H]23)cc2c1OCO2`: the negative-log IC50 (pIC50) in the assay with SW-620, in the assay with Escherichia coli, in the assay on Candida albicans and in the assay on Staphylococcus aureus was less than 4.52 each time.
Take `COc1c2c(cc3c1[C@H](c1ccccc1)[C@@]1(O)C(=O)N4C[C@H](Cc5ccccc5)N(C(C)=O)C[C@@H]4[C@@H]31)OCO2`: the negative logarithm of the IC50 (pIC50) with SW-620, in the assay with Escherichia coli, in the assay on Candida albicans and with Staphylococcus aureus was less than 4.52 in each case.
For the molecule `COc1cc([C@@H]2[C@H]3CN(C(C)=O)[C@@H](Cc4ccccc4)CN3C(=O)[C@@]23O[C@H]3c2ccccc2)cc2c1OCO2`, the pIC50 in the assay on SW-620, in the assay on Escherichia coli, in the assay on Candida albicans and with Staphylococcus aureus was less than 4.52 in each case.
With `COc1cc(C[C@H]2CN3C(=O)/C(=C/c4ccccc4)[C@H](c4cc(OC)c5c(c4)OCO5)[C@H]3CN2C(C)=O)cc2c1OCO2`, the negative logarithm of the IC50 (pIC50) in the assay on SW-620, in the assay with Escherichia coli, in the assay on Candida albicans and in the assay on Staphylococcus aureus was less than 4.52 each time.
On to `COc1cccc2c1C(=O)c1c(O)c3c(c(O)c1C2=O)C[C@@](O)(C(=O)CO)C[C@@H]3O[C@H]1C[C@H](N)[C@H](O)[C@H](C)O1` [DOXORUBICIN], for which the negative-log IC50 (pIC50) was 6.96 with SW-620 and 5.31 with SW620/AD300.
For `COc1cc(C[C@H]2CN3C[C@@H]4[C@@H](c5ccccc5)c5c(cc6c(c5OC)OCO6)[C@@H]4[C@H]3CN2C(C)=O)cc2c1OCO2`, the pIC50 in the assay with SW-620, in the assay with Escherichia coli, with Candida albicans and in the assay with Staphylococcus aureus was less than 4.52 in each case.
With `COc1ccc(CCN(C)CCCC(C#N)(c2ccc(OC)c(OC)c2)C(C)C)cc1OC` (stereo not given), the negative logarithm of the IC50 (pIC50) in the assay with SW620/AD300 was less than 4.52.
In the case of `COc1c2c(cc3c1[C@H](c1ccccc1)[C@H]1C(=O)N4C[C@H](Cc5ccccc5)N(C(C)=O)C[C@@H]4[C@@H]31)OCO2`, the negative-log IC50 (pIC50) in the assay on SW-620, in the assay with Escherichia coli, in the assay on Candida albicans and in the assay on Staphylococcus aureus was less than 4.52 in each case.
For the molecule `COc1cc(C[C@H]2CN3C(=O)[C@@]4(O[C@H]4c4ccccc4)[C@H](c4cc(OC)c5c(c4)OCO5)[C@H]3CN2C(C)=O)cc2c1OCO2`, the negative-log IC50 (pIC50) in the assay with SW-620, in the assay with Escherichia coli, in the assay on Candida albicans and in the assay with Staphylococcus aureus was less than 4.52 in each case.
